The results in this text go back to patent publication US11945796B2, “Substituted pyridine derivatives as SARM1 inhibitors” (Nura Bio, Inc., priority 2020, dated 2024).

Like-named read-outs stand apart in the source and are kept apart here.

By inhibition is commonly meant the drop in the measured response relative to a control, in per cent.

This experiment has as its target T1, human SARM1(50-724) (Homo sapiens, UniProt Q6SZW1).
T1 construct: 40 nM human SARM1(50-724)
T1 sequence (Q6SZW1 50-724): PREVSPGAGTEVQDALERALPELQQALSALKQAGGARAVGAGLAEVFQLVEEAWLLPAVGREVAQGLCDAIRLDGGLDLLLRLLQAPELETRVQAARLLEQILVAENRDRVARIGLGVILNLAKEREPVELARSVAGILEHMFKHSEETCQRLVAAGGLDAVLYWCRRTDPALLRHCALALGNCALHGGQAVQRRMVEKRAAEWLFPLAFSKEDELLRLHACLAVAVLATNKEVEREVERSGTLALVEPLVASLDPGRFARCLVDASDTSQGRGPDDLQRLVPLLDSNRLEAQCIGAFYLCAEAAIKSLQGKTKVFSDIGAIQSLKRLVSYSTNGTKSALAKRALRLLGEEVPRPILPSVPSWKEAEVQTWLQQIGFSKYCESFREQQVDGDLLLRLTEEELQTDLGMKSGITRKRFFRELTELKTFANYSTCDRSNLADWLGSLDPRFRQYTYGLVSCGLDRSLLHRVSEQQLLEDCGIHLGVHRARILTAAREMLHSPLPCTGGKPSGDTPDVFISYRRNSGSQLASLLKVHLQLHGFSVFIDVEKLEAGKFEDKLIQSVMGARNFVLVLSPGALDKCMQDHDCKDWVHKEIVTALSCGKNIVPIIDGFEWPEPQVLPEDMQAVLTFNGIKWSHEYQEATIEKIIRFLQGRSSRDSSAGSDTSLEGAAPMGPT
The experiment is described as follows: SARM1 NADase biochemical assay (HPLC peak areas of NAD and NAM). The following applies: 50 μM compound.

`c1cc(Cn2ccc(NC3CC3)n2)ccn1` [Example 98, N-Cyclopropyl-1-(pyridin-4-ylmethyl)-1H-pyrazol-3-amine]: the inhibition at 50 µM reads like this: (NAD peak area, read-out: Avg NAD % inhibition at 50 μM) 0 to 50%; (NAM peak area, read-out: Avg NAM % inhibition at 50 μM) 0 to 50%.
